According to US20070191227A1, “Use of basic amino acids in copper-containing fungicidal formulations” (priority 2003, published 2007):

Test system: Septoria tritici
Assay: Growth assay with Septoria tritici as indicator fungus (photometric)
Type: cell-based
Conditions: Zymoseptoria tritici; active ingredient concentration 1 ppm, individual active ingredient
Experimental: Efficacy of Formulations According to the Invention Comprising Copper and a Further Fungicidal Active Ingredient Against Septoria tritici.
A growth assay was carried out with Septoria tritici as indicator fungus. The fungal growth was measured photometrically by the increase in absorption or light scattering as a function of mycelium density. The data were converted into percent growth inhibition, the absorption of the untreated controls being defined as 0% inhibition and that of a killed spore suspension as reference as 100% inhibition.
The expected efficacies of combinations of active ingredients were determined using Colby's formula (Colby, S. R. “Calculating synergistic and antagonistic responses of herbicide combinations”, Weeds, 15, pp. 20-22, 1967) and compared with the observed efficacies.
Colby's formula: E=x+y−x·y/100 • E expected efficacy, expressed in % of the untreated control, when using the mixture of the active ingredients A and B at the concentrations a and b • x efficacy, expressed in % of the untreated control, when using the active ingredient A at the concentration a
y efficacy, expressed in % of the untreated control, when using the active ingredient B at the concentration b

## COC(=O)N(OC)c1ccccc1COc1ccn(-c2ccc(Cl)cc2)n1 [II, Pyraclostrobin]
  inhibition at 1 ppm: 73%
